Test results published in PMC12298351, “Novel 3,19-(N-Phenyl-3-(4-fluorophenyl)-pyrazole) Acetal of Andrographolide Promotes Cell Cycle Arrest and Apoptosis in MDA-MB-231 Breast Cancer Cells” (Pharmaceuticals, 2025).

Experiments:
MCF7 = settings: MCF7, Breast; for CC50: read-out: 50% lethal concentration (LC50)
CCRF-CEM = settings: for CC50: read-out: 50% lethal concentration (LC50), Leukemia
SF-295 = settings: SF-295, CNS; for CC50: read-out: 50% lethal concentration (LC50)
HS 578T = settings: for GI50 / Total growth inhibition (TGI): Breast; for CC50: read-out: 50% lethal concentration (LC50), Breast
SK-MEL-2 = settings: SK-MEL-2, Melanoma
HCC-2998 = settings: HCC-2998, Colon
KM12 = settings: KM12, Colon
ACHN = settings: for GI50 / Total growth inhibition (TGI): Renal; for CC50: read-out: 50% lethal concentration (LC50), Renal
HOP-62 = settings: for Total growth inhibition (TGI) / CC50: HOP-62, Non-Small Cell Lung; for GI50: HOP-62, Non-Small-Cell Lung; for CC50: read-out: 50% lethal concentration (LC50)
SF-268 = settings: SF-268, CNS; for CC50: read-out: 50% lethal concentration (LC50)
TK-10 = type: cell-based; settings: TK-10, Renal
SNB-75 = settings: SNB-75, CNS; for CC50: read-out: 50% lethal concentration (LC50)
MDA-MB-435 = settings: MDA-MB-435, Melanoma; for CC50: read-out: 50% lethal concentration (LC50)
SN12C = settings: for GI50 / Total growth inhibition (TGI): Renal; for CC50: read-out: 50% lethal concentration (LC50), Renal
SR = settings: for GI50 / Total growth inhibition (TGI): Leukemia; for CC50: read-out: 50% lethal concentration (LC50), Leukemia
MDA-MB-231 = settings: for GI50: MDA-MB-231, Breast; for Total growth inhibition (TGI) / CC50: MDA-MB-231/ATCC, Breast; for CC50: read-out: 50% lethal concentration (LC50)
IGROV1 = settings: IGROV1, Ovarian; for CC50: read-out: 50% lethal concentration (LC50)
T-47D = settings: for GI50 / Total growth inhibition (TGI): Breast; for CC50: read-out: 50% lethal concentration (LC50), Breast
SK-MEL-5 = settings: SK-MEL-5, Melanoma; for CC50: read-out: 50% lethal concentration (LC50)
EKVX = settings: for Total growth inhibition (TGI): Non-Small Cell Lung; for GI50: Non-Small-Cell Lung; for CC50: read-out: 50% lethal concentration (LC50), Non-Small Cell Lung
NCI-H460 = settings: for GI50: NCI-H460, Non-Small-Cell Lung
A498 = settings: A498, Renal; for CC50: read-out: 50% lethal concentration (LC50)
HL-60(TB) = settings: for CC50: read-out: 50% lethal concentration (LC50), Leukemia
NCI-H226 = settings: for Total growth inhibition (TGI) / CC50: NCI-H226, Non-Small Cell Lung; for GI50: NCI-H226, Non-Small-Cell Lung; for CC50: read-out: 50% lethal concentration (LC50)
RXF 393 = settings: RXF 393, Renal; for CC50: read-out: 50% lethal concentration (LC50)
HOP-92 = settings: for Total growth inhibition (TGI) / CC50: HOP-92, Non-Small Cell Lung; for GI50: HOP-92, Non-Small-Cell Lung; for CC50: read-out: 50% lethal concentration (LC50)
BT-549 = type: cell-based; settings: BT-549, Breast
CAKI-1 = settings: CAKI-1, Renal; for CC50: read-out: 50% lethal concentration (LC50)
UO-31 = settings: UO-31, Renal; for CC50: read-out: 50% lethal concentration (LC50)
SNB-19 = type: cell-based; settings: SNB-19, CNS
786-0 = settings: 786-0, Renal; for CC50: read-out: 50% lethal concentration (LC50)
SW-620 = settings: SW-620, Colon; for CC50: read-out: 50% lethal concentration (LC50)

C=C1CCC2C3(C)COC(c4cn(-c5ccccc5)nc4-c4ccc(Br)cc4)OC3CCC2(C)C1CC=C1C(=O)OCC1O (stereo not drawn) [1h]
GI50 (MCF7): 1.49 µM
Total growth inhibition (TGI) (MCF7): 4.81 µM
CC50 (MCF7): 72 µM
GI50 (CCRF-CEM; Leukemia): 0.48 µM
CC50 (CCRF-CEM): > 100 µM
GI50 (SF-295): 1.54 µM
Total growth inhibition (TGI) (SF-295): 2.93 µM
CC50 (SF-295): 5.57 µM
GI50 (HS 578T): 1.52 µM
Total growth inhibition (TGI) (HS 578T): 3.01 µM
CC50 (HS 578T): 5.94 µM
GI50 (SK-MEL-2): 1.76 µM
Total growth inhibition (TGI) (SK-MEL-2): 3.18 µM
GI50 (HCC-2998): 1.83 µM
Total growth inhibition (TGI) (HCC-2998): 3.49 µM
GI50 (KM12): 1.68 µM
Total growth inhibition (TGI) (KM12): 3.68 µM
GI50 (ACHN): 2.07 µM
Total growth inhibition (TGI) (ACHN): 4.78 µM
CC50 (ACHN): > 100 µM
Total growth inhibition (TGI) (HOP-62): 3.83 µM
GI50 (HOP-62): 1.8 µM
CC50 (HOP-62): 8.12 µM
GI50 (SF-268): 2.11 µM
Total growth inhibition (TGI) (SF-268): 4.68 µM
CC50 (SF-268): 11.5 µM
GI50 (TK-10): 1.19 µM
GI50 (SNB-75): 1.51 µM
Total growth inhibition (TGI) (SNB-75): 2.91 µM
CC50 (SNB-75): 5.75 µM
GI50 (MDA-MB-435): 1.67 µM
Total growth inhibition (TGI) (MDA-MB-435): 3.34 µM
CC50 (MDA-MB-435): 6.67 µM
GI50 (SN12C): 1.51 µM
Total growth inhibition (TGI) (SN12C): 3.37 µM
CC50 (SN12C): 7.48 µM
GI50 (SR): 1.69 µM
Total growth inhibition (TGI) (SR): 8.13 µM
CC50 (SR): > 100 µM
GI50 (MDA-MB-231): 1.59 µM
Total growth inhibition (TGI) (MDA-MB-231): 3.14 µM
CC50 (MDA-MB-231): 6.19 µM
GI50 (IGROV1): 1.67 µM
Total growth inhibition (TGI) (IGROV1): 5.16 µM
CC50 (IGROV1): > 100 µM
GI50 (T-47D): 1.18 µM
Total growth inhibition (TGI) (T-47D): 3.13 µM
CC50 (T-47D): 8.33 µM
GI50 (SK-MEL-5): 1.6 µM
Total growth inhibition (TGI) (SK-MEL-5): 2.96 µM
CC50 (SK-MEL-5): 5.44 µM
Total growth inhibition (TGI) (EKVX): 5.35 µM
GI50 (EKVX): 2.21 µM
CC50 (EKVX): > 100 µM
Total growth inhibition (TGI) (NCI-H460; NCI-H460, Non-Small Cell Lung): 3.34 µM
GI50 (NCI-H460): 1.59 µM
CC50 (NCI-H460; read-out: 50% lethal concentration (LC50), NCI-H460, Non-Small Cell Lung): 7 µM
GI50 (A498): 4.35 µM
Total growth inhibition (TGI) (A498): 1.66 µM
CC50 (A498): 53.6 µM
GI50 (HL-60(TB); Leukemia): 0.67 µM
CC50 (HL-60(TB)): > 100 µM
Total growth inhibition (TGI) (NCI-H226): 2.8 µM
GI50 (NCI-H226): 1.36 µM
CC50 (NCI-H226): 5.77 µM
GI50 (RXF 393): 1.71 µM
Total growth inhibition (TGI) (RXF 393): 3.23 µM
CC50 (RXF 393): 6.11 µM
Total growth inhibition (TGI) (HOP-92): 2.92 µM
GI50 (HOP-92): 1.38 µM
CC50 (HOP-92): 6.2 µM
GI50 (BT-549): 1.47 µM
Total growth inhibition (TGI) (BT-549): 3.5 µM
GI50 (CAKI-1): 1.59 µM
Total growth inhibition (TGI) (CAKI-1): 3.49 µM
CC50 (CAKI-1): 7.69 µM
GI50 (UO-31): 2.07 µM
Total growth inhibition (TGI) (UO-31): 2.52 µM
CC50 (UO-31): 5.34 µM
GI50 (SNB-19): 1.47 µM
GI50 (786-0): 2.07 µM
Total growth inhibition (TGI) (786-0): 4.49 µM
CC50 (786-0): 9.76 µM
Total growth inhibition (TGI) (SW-620): > 100 µM
CC50 (SW-620): > 100 µM

C=C1CCC2C3(C)COC(c4cn(-c5ccccc5)nc4-c4cccc(F)c4)OC3CCC2(C)C1CC=C1C(=O)OCC1O (stereo not drawn) [1c]
GI50 (MCF7): 1.63 µM
Total growth inhibition (TGI) (MCF7): 5.49 µM
CC50 (MCF7): 50.1 µM
GI50 (CCRF-CEM; Leukemia): 2.06 µM
Total growth inhibition (TGI) (CCRF-CEM; Leukemia): > 100 µM
CC50 (CCRF-CEM): > 100 µM
GI50 (SF-295): 1.52 µM
Total growth inhibition (TGI) (SF-295): 2.88 µM
CC50 (SF-295): 5.49 µM
GI50 (HS 578T): 1.66 µM
Total growth inhibition (TGI) (HS 578T): 3.18 µM
CC50 (HS 578T): 6.12 µM
GI50 (SK-MEL-2): 1.79 µM
Total growth inhibition (TGI) (SK-MEL-2): 3.29 µM
GI50 (HCC-2998): 1.73 µM
Total growth inhibition (TGI) (HCC-2998): 3.2 µM
GI50 (KM12): 2.26 µM
Total growth inhibition (TGI) (KM12): 4.47 µM
GI50 (ACHN): 1.8 µM
Total growth inhibition (TGI) (ACHN): 3.53 µM
CC50 (ACHN): 6.94 µM
Total growth inhibition (TGI) (HOP-62): 3.86 µM
GI50 (HOP-62): 1.74 µM
CC50 (HOP-62): 8.55 µM
GI50 (SF-268): 2.27 µM
Total growth inhibition (TGI) (SF-268): 5.61 µM
CC50 (SF-268): 28.4 µM
GI50 (TK-10): 1.41 µM
Total growth inhibition (TGI) (SNB-75): 3.55 µM
CC50 (SNB-75): 5.82 µM
GI50 (MDA-MB-435): 1.5 µM
Total growth inhibition (TGI) (MDA-MB-435): 3.08 µM
CC50 (MDA-MB-435): 6.32 µM
GI50 (SN12C): 1.59 µM
Total growth inhibition (TGI) (SN12C): 3.42 µM
CC50 (SN12C): 7.34 µM
GI50 (SR): 2.2 µM
Total growth inhibition (TGI) (SR): > 100 µM
CC50 (SR): > 100 µM
GI50 (MDA-MB-231): 1.72 µM
Total growth inhibition (TGI) (MDA-MB-231): 3.29 µM
CC50 (MDA-MB-231): 6.28 µM
GI50 (IGROV1): 2.07 µM
Total growth inhibition (TGI) (IGROV1): 5.72 µM
CC50 (IGROV1): > 100 µM
GI50 (T-47D): 1.39 µM
Total growth inhibition (TGI) (T-47D): 4.07 µM
CC50 (T-47D): > 100 µM
GI50 (SK-MEL-5): 1.65 µM
Total growth inhibition (TGI) (SK-MEL-5): 3.02 µM
CC50 (SK-MEL-5): 5.51 µM
Total growth inhibition (TGI) (EKVX): 5.17 µM
GI50 (EKVX): 2.21 µM
CC50 (EKVX): 56 µM
Total growth inhibition (TGI) (NCI-H460; NCI-H460, Non-Small Cell Lung): 3.59 µM
GI50 (NCI-H460): 1.81 µM
GI50 (A498): 4.13 µM
Total growth inhibition (TGI) (A498): 18.4 µM
CC50 (A498): 53.3 µM
GI50 (HL-60(TB); Leukemia): 0.76 µM
Total growth inhibition (TGI) (HL-60(TB); Leukemia): > 100 µM
CC50 (HL-60(TB)): > 100 µM
Total growth inhibition (TGI) (NCI-H226): 3.19 µM
GI50 (NCI-H226): 1.67 µM
CC50 (NCI-H226): 6.08 µM
GI50 (RXF 393): 1.64 µM
Total growth inhibition (TGI) (RXF 393): 3.12 µM
CC50 (RXF 393): 5.94 µM
Total growth inhibition (TGI) (HOP-92): 3.03 µM
GI50 (HOP-92): 1.53 µM
CC50 (HOP-92): 6.02 µM
GI50 (BT-549): 1.3 µM
Total growth inhibition (TGI) (BT-549): 3.01 µM
GI50 (CAKI-1): 1.56 µM
Total growth inhibition (TGI) (CAKI-1): 3.09 µM
CC50 (CAKI-1): 6.13 µM
GI50 (UO-31): 1.78 µM
Total growth inhibition (TGI) (UO-31): 2.77 µM
CC50 (UO-31): 5.46 µM
Total growth inhibition (TGI) (SNB-19): 2.72 µM
GI50 (786-0): 1.78 µM
Total growth inhibition (TGI) (786-0): 3.59 µM
CC50 (786-0): 7.24 µM
GI50 (SW-620): 5.71 µM
Total growth inhibition (TGI) (SW-620): > 100 µM
CC50 (SW-620): > 100 µM
